Test results as given in paper PMC12615753, “Glutathione as a taste modulator: molecular mechanisms of interaction with umami and sweet taste receptors” (Food Chemistry: Molecular Sciences, 2025).

Target: T1, hTAS1R1 R151A/rTAS1R3 (Homo sapiens, UniProt Q7RTX1, R151A)
T1 construct: UniProtKB number Q7RTX1–1); expressed in transfected cells; host or cells: HEK293T/17 (ATCC CRL-11268)
T1 sequence (Q7RTX1 21-841 R151A): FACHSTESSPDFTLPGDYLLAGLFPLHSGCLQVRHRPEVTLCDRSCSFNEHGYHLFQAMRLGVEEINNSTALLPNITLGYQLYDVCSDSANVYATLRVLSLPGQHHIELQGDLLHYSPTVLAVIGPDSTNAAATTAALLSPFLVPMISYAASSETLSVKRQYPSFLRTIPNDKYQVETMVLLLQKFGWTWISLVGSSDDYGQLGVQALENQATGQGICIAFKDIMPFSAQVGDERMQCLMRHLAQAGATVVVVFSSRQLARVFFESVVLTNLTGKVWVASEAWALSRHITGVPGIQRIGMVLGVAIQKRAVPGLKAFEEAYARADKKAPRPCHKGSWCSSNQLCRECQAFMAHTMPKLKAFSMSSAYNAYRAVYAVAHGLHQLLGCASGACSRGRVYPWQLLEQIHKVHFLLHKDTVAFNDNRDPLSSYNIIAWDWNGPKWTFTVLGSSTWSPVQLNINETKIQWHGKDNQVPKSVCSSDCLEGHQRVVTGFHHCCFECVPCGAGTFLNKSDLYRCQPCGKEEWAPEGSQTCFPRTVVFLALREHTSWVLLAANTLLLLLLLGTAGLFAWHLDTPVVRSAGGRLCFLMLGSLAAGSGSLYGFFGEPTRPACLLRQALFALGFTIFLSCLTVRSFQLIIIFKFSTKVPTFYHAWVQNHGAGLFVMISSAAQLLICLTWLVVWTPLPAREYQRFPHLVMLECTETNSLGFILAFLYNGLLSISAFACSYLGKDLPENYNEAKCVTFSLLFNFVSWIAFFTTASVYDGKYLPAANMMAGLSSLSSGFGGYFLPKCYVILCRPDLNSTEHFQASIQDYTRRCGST
T1 sequence (Q923K1 21-858 partner): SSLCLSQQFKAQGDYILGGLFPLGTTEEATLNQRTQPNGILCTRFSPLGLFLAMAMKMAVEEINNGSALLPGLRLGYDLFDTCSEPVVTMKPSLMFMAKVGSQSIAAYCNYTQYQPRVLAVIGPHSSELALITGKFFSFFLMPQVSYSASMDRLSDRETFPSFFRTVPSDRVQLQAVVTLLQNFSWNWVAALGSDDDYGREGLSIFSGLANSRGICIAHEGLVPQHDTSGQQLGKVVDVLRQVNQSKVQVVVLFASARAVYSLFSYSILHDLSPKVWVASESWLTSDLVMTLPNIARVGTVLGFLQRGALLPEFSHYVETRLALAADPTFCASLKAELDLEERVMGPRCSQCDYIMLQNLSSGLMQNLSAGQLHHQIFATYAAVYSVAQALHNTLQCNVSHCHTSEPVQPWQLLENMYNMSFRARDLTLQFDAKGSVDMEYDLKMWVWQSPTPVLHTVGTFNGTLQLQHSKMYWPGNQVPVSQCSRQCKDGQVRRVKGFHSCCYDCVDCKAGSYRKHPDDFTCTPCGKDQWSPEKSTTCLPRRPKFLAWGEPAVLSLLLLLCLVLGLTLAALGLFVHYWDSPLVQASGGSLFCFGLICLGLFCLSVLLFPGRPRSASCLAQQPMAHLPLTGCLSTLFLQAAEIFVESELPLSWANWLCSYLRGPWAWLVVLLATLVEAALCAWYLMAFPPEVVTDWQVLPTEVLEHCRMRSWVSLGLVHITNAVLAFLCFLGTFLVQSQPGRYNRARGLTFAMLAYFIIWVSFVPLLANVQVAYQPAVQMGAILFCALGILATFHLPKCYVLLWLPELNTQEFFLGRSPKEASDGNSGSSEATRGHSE
Assay: Calcium assay, hTAS1R1 mutant co-expressed with rTAS1R3
Format: cell-based, rat

Row | response to the agonist alone, vs WT (R151A) | Compound | EC50 | effect of the added compound (1 mM) on the response to L-Glu (R151A) | Max ∆F/F0 (R151A, GSH) | R1 = mutant EC50/WT EC50 (R151A, GSH)
1 | strongly affected | CCCC(CCC)NC(=O)c1ccc2c(c1)OCO2 [S807, N-(heptan-4-yl)benzo[d][1,3]dioxole-5-carboxamide, reference compound] |  |  |  | 
2 |  | N[C@@H](CCC(=O)N[C@@H](CS)C(=O)NCC(=O)O)C(=O)O [GSH, γ-L-glutamyl-L-cysteinyl-glycine] | 2590 ± 1590 µM | did not affect | 0.31 ± 0.08 | 1.0
